Reference: US5216005A, “Immunosuppressive analogues and derivatives of succinylacetone” (priority 1990, dated 1993)

Test system: adjuvant induced arthritis
Experiment: adjuvant induced arthritis in rats, overall arthritis score; intraarticular right paw, per kg: succinylacetone 325 μg, methyl ester 150 μg, 4-acetyl-5-oxohexanoate 560 μg
Type: in vivo, rat

CC(=O)CC(=O)CCC(=O)O [Succinylacetone, 4,6-dioxoheptanoic acid]
overall arthritis score (Exp. I (treated from same day), day 14): 0.6 ± 1.3 | overall arthritis score (Exp. I (treated from same day), day 16): 0.8 ± 1.8 | overall arthritis score (Exp. I (treated from same day), day 18): 1.4 ± 2.6 | overall arthritis score (Exp. I (treated from same day), day 20): 3 ± 5 | overall arthritis score (Exp. I (treated from same day), day 22): 3.8 ± 5 | overall arthritis score (Exp. I (treated from same day), day 24): 4 ± 3.9 | overall arthritis score (Exp. I (treated from same day), day 26): 5 ± 4.3 | overall arthritis score (Exp. II (treated from day 4), day 14): 3.2 ± 3.8 | overall arthritis score (Exp. II (treated from day 4), day 16): 3.2 ± 3.8 | overall arthritis score (Exp. II (treated from day 4), day 18): 4.8 ± 3.6 | overall arthritis score (Exp. II (treated from day 4), day 20): 7 ± 2.3 | overall arthritis score (Exp. II (treated from day 4), day 22): 6.2 ± 2.4 | overall arthritis score (Exp. II (treated from day 4), day 24): 6 ± 2.7 | overall arthritis score (Exp. II (treated from day 4), day 26): 7.8 ± 3 | overall arthritis score (Exp. III (treated from day 14), day 14): 2.0 ± 3.9 | overall arthritis score (Exp. III (treated from day 14), day 16): 2.0 ± 3.9 | overall arthritis score (Exp. III (treated from day 14), day 18): 2.0 ± 2.9 | overall arthritis score (Exp. III (treated from day 14), day 20): 2.4 ± 2.9 | overall arthritis score (Exp. III (treated from day 14), day 22): 4.0 ± 3.7 | overall arthritis score (Exp. III (treated from day 14), day 24): 2.8 ± 2.8 | overall arthritis score (Exp. III (treated from day 14), day 26): 3.4 ± 2.7 | effect on arthritis (comparison of treatment schedules, in words): also effective when administered 14 days subsequent to injection
